Measurements: PMC11207073, “Protein Tyrosine Phosphatase 1B Inhibitors of Pueraria lobata Based on the Spectrum–Effect Relationship by Q-Marker Selection” (Molecules, 2024)

Target: T1, Protein tyrosine phosphatase 1B (PTP1B) (Homo sapiens, UniProt P18031)
T1 construct: gene PTPN1
T1 sequence (P18031 1-435): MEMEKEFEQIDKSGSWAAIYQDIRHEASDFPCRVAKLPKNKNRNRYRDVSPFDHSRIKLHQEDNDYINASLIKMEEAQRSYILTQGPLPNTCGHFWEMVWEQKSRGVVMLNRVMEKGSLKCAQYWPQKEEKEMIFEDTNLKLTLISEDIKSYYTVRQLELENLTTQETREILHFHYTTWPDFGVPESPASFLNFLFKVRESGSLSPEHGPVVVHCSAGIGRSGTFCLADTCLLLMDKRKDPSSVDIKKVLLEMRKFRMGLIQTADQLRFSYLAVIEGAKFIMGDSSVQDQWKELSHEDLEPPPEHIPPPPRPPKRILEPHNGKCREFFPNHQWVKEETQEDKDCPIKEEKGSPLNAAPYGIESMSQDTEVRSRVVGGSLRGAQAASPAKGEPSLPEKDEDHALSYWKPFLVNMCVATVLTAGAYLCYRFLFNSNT
Assay: pNPP phosphatase assay with commercial PTP1B, absorbance at […] nm
Format: biochemical

IC50 [µM] | Compound
38.1 | O=c1c(-c2ccc(O)cc2)coc2cc(O[C@@H]3O[C@H](CO)[C@@H](O)[C@H](O)[C@H]3O)cc(O)c12 (single isomer, unassigned) [peak 11, genistin]
23.7 | COc1cc2c(=O)c(-c3ccc(O)cc3)coc2cc1O[C@@H]1O[C@H](CO)[C@@H](O)[C@H](O)[C@H]1O (single isomer, unassigned) [peak 9, glycitin]
21.7 | COc1ccc(-c2coc3c([C@@H]4O[C@H](CO)[C@@H](O)[C@H](O)[C@H]4O)c(O)ccc3c2=O)cc1 (single isomer, unassigned) [peak 12, 4′-methoxypuerarin]
